Reference: ChEMBL document CHEMBL1201862, “PubChem BioAssay data set” (2004)
Blank lines part the entries; values can stand above or below the compound they belong to. Activity calls are given as the source filed them.

Tests used:
cells = format: functional, cell-based; details: HEK-CNG
Galanin receptor type 3 = biological target: T1, Galanin receptor type 3 (Homo sapiens, UniProt O60755); test: Fluorescence-based cell-based primary high throughput dose response assay to identify antagonists of the Galanin Receptor 3 (GalR3).; format: functional
T1 sequence (O60755 whole entry): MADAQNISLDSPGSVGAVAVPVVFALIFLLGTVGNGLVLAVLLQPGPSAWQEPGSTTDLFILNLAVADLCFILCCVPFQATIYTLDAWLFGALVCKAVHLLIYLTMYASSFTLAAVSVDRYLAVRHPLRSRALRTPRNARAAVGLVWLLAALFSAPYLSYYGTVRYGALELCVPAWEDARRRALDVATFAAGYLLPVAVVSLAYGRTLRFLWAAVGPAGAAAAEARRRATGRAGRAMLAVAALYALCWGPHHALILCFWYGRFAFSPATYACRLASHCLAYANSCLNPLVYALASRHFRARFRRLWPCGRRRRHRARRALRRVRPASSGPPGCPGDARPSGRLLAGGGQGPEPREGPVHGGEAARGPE

[1] = biological target: T2, Methionyl-tRNA synthetase, putative (Trypanosoma brucei brucei, UniProt Q38C91); format: functional, Trypanosoma brucei brucei strain 927/4 GUTat10.1
T2 sequence (Q38C91 whole entry): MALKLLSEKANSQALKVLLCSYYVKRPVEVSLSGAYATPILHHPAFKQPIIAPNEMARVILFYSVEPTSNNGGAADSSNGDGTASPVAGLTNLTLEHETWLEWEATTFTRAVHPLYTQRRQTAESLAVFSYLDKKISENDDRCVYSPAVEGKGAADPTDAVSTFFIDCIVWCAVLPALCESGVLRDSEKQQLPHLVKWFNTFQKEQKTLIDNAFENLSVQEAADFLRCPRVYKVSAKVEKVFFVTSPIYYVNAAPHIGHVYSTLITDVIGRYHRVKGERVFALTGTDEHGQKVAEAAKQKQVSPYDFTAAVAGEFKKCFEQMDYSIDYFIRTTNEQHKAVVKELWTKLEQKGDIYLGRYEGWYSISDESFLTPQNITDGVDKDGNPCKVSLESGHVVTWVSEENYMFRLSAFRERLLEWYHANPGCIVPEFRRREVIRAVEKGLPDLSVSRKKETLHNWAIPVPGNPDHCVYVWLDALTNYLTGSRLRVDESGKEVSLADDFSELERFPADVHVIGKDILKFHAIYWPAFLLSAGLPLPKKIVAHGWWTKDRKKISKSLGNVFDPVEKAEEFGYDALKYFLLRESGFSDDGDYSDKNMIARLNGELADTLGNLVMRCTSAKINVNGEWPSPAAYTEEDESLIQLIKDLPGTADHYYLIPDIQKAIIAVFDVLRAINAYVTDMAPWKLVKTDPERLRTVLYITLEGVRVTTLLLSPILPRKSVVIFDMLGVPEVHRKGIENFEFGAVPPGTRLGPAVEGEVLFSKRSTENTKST

[2] = biological target: T2, Methionyl-tRNA synthetase, putative; format: functional, Trypanosoma brucei brucei strain 927/4 GUTat10.1; remark: listed apart in the source
[3] = Counterscreen for inhibitors of Trypanosoma brucei methionyl tRNA synthetase (MetRS): Luminescence-based cell-based high throughput dose response assay to identify compounds that are cytotoxic to Jurkat human T lymphocyte cells.; format: functional
Interleukin-8 [4] = biological target: T3, Interleukin-8 (Homo sapiens, UniProt P10145); test: Dose Response confirmation of uHTS small molecule hits for cystic fibrosis induced NFkb Inhibitors in a PAF-induced IL8 counterscreen.; format: functional; details: read-out: IC50_Mean
T3 sequence (P10145 whole entry): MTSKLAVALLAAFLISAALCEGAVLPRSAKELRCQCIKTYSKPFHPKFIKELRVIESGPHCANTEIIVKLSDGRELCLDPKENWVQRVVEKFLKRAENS

Interleukin-8 [5] = biological target: T3, Interleukin-8; test: Dose Response confirmation of uHTS small molecule hits for cystic fibrosis induced NFkb Inhibitors in a TNFa-induced IL8 counterscreen.; format: functional; details: read-out: IC50_Mean
Kallikrein-7 = Kallikrein-7 (Homo sapiens, UniProt P49862); test: Fluorescence Intensity-based biochemical primary high throughput dose response assay to identify activators of kallikrein-7 (K7) zymogen.
Sequence of Kallikrein-7 (P49862 whole entry): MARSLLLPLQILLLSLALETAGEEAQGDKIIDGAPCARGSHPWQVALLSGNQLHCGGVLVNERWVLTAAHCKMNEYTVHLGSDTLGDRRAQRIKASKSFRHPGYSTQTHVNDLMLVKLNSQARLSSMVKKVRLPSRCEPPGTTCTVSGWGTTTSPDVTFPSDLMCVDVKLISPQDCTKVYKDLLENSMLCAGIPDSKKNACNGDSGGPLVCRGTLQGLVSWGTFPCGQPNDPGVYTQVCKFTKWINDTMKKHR

Beta-galactosidase = Beta-galactosidase (Escherichia coli, UniProt Q8VNN2); test: Dose response counterscreen for EBI2 assay utilizing the enzyme, b-galactosidase.; format: functional
Sequence of Beta-galactosidase (Q8VNN2 whole entry): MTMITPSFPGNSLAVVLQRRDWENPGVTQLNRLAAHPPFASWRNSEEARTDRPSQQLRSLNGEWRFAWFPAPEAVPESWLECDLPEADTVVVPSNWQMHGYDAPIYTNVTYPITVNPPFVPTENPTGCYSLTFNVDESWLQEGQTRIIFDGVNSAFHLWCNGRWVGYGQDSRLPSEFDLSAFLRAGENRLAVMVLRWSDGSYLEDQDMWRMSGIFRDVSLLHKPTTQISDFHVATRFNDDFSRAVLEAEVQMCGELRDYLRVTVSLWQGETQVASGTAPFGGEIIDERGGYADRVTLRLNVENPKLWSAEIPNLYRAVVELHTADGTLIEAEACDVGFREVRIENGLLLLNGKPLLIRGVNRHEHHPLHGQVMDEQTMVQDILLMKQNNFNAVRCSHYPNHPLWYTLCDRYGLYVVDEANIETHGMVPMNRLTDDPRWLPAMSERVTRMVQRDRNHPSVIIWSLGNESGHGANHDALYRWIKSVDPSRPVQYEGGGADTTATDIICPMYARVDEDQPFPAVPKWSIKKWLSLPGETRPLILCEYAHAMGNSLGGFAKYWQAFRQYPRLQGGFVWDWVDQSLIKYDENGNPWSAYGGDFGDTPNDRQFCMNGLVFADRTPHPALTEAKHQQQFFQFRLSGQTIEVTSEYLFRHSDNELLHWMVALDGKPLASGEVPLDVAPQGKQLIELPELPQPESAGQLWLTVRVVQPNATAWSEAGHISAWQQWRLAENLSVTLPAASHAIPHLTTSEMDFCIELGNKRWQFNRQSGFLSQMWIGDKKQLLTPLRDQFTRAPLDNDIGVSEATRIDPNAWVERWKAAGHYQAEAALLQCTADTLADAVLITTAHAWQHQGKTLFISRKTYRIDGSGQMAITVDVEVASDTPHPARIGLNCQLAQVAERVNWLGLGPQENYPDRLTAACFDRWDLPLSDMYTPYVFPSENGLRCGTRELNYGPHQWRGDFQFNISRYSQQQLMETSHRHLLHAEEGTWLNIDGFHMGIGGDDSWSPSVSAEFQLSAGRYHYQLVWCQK

[6] = biological target: T4, Rac GTPase-activating protein 1 (Homo sapiens, UniProt Q9H0H5); test: MgcRacGAP GTPase-activating activity inhibitors, confirmation, biochemical, ADP Hunter fluorescence, primary and confirmatory (AID 624330); format: functional
T4 sequence (Q9H0H5 whole entry): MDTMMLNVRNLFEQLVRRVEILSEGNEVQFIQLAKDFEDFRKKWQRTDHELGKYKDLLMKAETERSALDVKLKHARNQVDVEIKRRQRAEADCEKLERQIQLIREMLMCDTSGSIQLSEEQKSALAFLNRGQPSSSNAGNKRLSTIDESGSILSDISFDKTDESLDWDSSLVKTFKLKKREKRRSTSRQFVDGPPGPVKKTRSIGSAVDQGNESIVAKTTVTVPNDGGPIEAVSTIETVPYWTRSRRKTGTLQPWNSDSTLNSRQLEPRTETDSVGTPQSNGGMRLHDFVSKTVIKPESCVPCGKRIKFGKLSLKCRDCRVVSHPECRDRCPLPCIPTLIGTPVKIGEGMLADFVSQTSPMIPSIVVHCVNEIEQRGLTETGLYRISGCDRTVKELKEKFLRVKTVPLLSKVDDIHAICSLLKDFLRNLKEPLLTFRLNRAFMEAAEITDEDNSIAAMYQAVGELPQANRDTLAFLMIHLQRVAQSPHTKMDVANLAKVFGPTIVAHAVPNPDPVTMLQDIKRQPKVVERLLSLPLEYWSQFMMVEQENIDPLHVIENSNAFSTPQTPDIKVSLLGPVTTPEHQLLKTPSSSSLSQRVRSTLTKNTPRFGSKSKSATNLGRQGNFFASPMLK

[7] = biological target: FAD-linked sulfhydryl oxidase ALR (Homo sapiens, UniProt P55789); test: inhibitors of human ALR sulfhydryl oxidase, dose response, biochemical, H2O2 detection, luminescence, cherry-pick (AID 493248)
Sequence of FAD-linked sulfhydryl oxidase ALR (P55789 whole entry): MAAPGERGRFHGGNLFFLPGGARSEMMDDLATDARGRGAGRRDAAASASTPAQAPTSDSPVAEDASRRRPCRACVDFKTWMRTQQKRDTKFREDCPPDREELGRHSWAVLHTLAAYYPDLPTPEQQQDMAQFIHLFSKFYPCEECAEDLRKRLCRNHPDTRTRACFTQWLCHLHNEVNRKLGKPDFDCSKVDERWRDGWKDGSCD

[8] = HeLa cell cytotoxicity, dose response, cytotoxicity control for MgcRacGAP inhibitor project (AID 624300); format: functional
[9] = biological target: T5, Mitochondrial peptide methionine sulfoxide reductase (Bos taurus, UniProt P54149); format: functional;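 also: absorbance read-out, biochemical high-throughput dose-response screen for MsrA inhibitors, confirmatory; recombinant bovine MsrA coupled to E. coli TrxB with NADPH and selenocystamine; potency is for inhibitors of MsrA activity on DMSO substrate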
T5 sequence (P54149 whole entry): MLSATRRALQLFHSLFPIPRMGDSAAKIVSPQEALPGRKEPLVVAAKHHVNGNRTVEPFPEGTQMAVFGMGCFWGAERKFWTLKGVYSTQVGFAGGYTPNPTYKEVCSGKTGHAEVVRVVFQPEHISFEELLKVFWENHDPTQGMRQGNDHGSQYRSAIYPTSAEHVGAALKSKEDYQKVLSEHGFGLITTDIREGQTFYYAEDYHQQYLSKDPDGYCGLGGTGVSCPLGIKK

Aminopeptidase N = biological target: T6, Aminopeptidase N (Plasmodium falciparum FcB1/Columbia, UniProt O96935); test: P. falciparum M1AAP inhibitors, biochemical, fluorogenic H-Leu-NHMec substrate, 1536-well (AID 1445); parameters: species or system Plasmodium falciparum 3D7, 3D7
T6 sequence (O96935 whole entry): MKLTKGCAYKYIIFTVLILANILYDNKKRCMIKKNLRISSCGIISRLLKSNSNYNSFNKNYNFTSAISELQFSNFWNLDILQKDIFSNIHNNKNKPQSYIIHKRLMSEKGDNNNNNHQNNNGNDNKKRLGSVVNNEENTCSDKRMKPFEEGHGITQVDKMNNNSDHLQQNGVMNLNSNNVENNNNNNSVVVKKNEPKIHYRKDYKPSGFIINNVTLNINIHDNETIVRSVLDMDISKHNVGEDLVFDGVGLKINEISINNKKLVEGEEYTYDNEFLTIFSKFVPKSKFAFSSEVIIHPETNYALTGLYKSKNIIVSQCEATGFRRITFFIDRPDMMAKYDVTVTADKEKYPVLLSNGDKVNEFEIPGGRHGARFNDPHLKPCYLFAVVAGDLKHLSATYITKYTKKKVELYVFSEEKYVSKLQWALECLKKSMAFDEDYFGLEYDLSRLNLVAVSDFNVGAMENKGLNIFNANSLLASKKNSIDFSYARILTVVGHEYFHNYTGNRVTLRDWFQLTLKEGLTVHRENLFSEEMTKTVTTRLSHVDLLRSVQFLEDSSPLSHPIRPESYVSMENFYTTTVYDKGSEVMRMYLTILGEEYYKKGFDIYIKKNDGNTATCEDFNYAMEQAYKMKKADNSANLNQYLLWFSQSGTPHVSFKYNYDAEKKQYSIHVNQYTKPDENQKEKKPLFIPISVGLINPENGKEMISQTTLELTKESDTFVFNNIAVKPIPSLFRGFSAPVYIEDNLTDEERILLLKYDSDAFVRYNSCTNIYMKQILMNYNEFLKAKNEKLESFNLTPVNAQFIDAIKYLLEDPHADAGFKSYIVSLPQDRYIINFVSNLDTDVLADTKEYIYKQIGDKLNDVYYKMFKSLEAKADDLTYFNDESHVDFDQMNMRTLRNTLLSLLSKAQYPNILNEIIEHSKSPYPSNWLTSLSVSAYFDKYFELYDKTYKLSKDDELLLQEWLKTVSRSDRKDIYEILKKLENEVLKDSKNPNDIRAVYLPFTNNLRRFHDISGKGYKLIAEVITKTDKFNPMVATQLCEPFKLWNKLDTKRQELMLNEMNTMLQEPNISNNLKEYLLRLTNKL

SMILES: CCCCC[C@H](O)/C=C/[C@H]1CCC(=O)[C@@H]1CCCCCCC(=O)N1CCCCC1CO (some centres not stated)
EC50 (cells): > 29.9 µM (inactive)
IC50 (Galanin receptor type 3): 3.54 µM (active)

SMILES: CC(=O)NS(=O)(=O)c1ccc(NC(=O)/C=C/c2cn(-c3ccccc3)nc2-c2ccccc2)cc1
IC50 [1]: 12 µM (inactive)
IC50 [2]: 49.8 µM (inactive)
IC50 [3]: 83.3 µM (inactive)

SMILES: O=C1C=C(NC2=CC3OC(c4ccccc4)OCC3OC2=O)CCC1 (configuration not stated)
IC50 (Interleukin-8 [4]): 1.5 µM (active)
IC50 (Interleukin-8 [5]): 1.07 µM (active)

SMILES: COc1cc(/C=N/Nc2nc3ccccc3[nH]2)ccc1O
IC50 [6]: 14 µM (active)
AC50 [7]: 1.16 µM (active)
IC50 [1]: 102 µM (inactive)
IC50 [2]: 23.7 µM (inactive)
IC50 [3]: 83.3 µM (inactive)
CC50 [8]: 100 µM (active)

Now from value to compound:

EC50 (Kallikrein-7): > 69.5 µM (inactive)
SMILES: CCOC(=O)c1cnc2c(C(=O)OC)cccc2c1NCc1ccco1

IC50 (Beta-galactosidase): > 80 µM (inactive)
SMILES: O=C(/C=C/c1cccs1)N1CCC2(CC1)Oc1ccc(Cl)cc1C(=O)C21CC(c2ccccc2)=NO1 (configuration not stated)

IC50 [9]: 99.4 µM (inactive)
IC50 (Aminopeptidase N): 24.7 µM (active)
SMILES: COCc1cc(C)n(CC(=O)N/N=C/c2ccc(-c3ccc(Cl)c(C(=O)O)c3)o2)c(=O)c1C#N
